In patent US9115092B2, “Substituted quinazoline and pyrido-pyrimidine derivatives” (Asana Biosciences, LLC, priority 2010, dated 2015) one finds IC50 data, which are given here for 20 compounds.

Each structure is given as a SMILES string. Where only a bound is given, the exact number is not on record here.

For experiment [1], the target named is T1, mTOR kinase (Homo sapiens, UniProt P42345).
T1 construct: purchased Millipore, USA
The experiment can be described thus: mTOR kinase TR-FRET assay. The format is biochemical. The conditions noted are these: read-out: mTO R. Here is the method: Compound inhibition for mTOR kinase was determined in a homogeneous TR-FRET assay using the Lance® ULight-p70 S6K (Thr 389) peptide (obtained from Perkin-Elmer). The ULight™-labeled synthetic peptide contains the amino acid residues surrounding Thr389 of human p70 S6K. The ULight-p70 S6K peptide is phosphorylated at Thr389 by mTOR. Phosphorylation motif: LGFTYVAP as substrate.
The compound dilution was carried out in 100% DMSO followed by a buffer dilution. The reaction buffer was HEPES (50 mM pH 7.5), EGTA (1 mM), MnCl2 (3 mM). Test compounds at various concentrations were pre-incubated with mTOR (Millipore, USA; 5 ng) for 60 min, and then the Lance® ULight-p70 S6K (Thr 389) peptide (50 nM) was added along with ATP (20 μM). After incubating the reaction mixture for 60 min at room temperature, the kinase reaction was terminated by the addition of EDTA (10 mM) followed by the addition of detection mix, i.e., 1 nM Eu-labeled anti-phospho-substrate antibody (Perkin Elmer, USA). The fluorescence emission at […] was measured upon excitation at 340 nm. IC50 values were subsequently determined using a sigmoidal dose-response curve (variable slope) in GraphPad Prism® 5 software.
Compounds of formula (I) caused inhibition of mTOR kinase activity as determined by this assay.
On the technique in general: Time-resolved FRET reads energy transfer from a long-lived donor to a nearby acceptor.

For experiment [2], the target named is T2, PI3Kα (wild-type), P110/P85α (Homo sapiens, UniProt P42336).
T2 construct: made in house; host or cells: SF9 insect cells
The experiment is described as follows: PI3 Kinase TR-FRET assay, PI3Kα (wild-type). The format is biochemical. Here is the method: The ability of compounds of the invention to inhibit PI3K activity was determined in a homogeneous TR-FRET assay using a PI3K assay kit (Millipore, USA; cat #33-016) according to manufacturer's instructions. PI3-Kinases (isoforms α, β, γ and δ) catalyze the phosphorylation of phosphatidylinositol, PIP2 to PIP3 in the presence of ATP and Mg^2+. The PIP3 product is detected by displacement of biotin-PIP3 from an energy transfer complex consisting of Europium labeled anti-GST monoclonal antibody, a GST-tagged PH domain, biotinylated PIP3 and Streptavidin-APC. Excitation of Europium in the complex results in an energy transfer to the APC and a fluorescence emission at 665 nm. The PIP3 product displaces biotin-PIP3 from the complex resulting in a loss of energy transfer and thus a decrease in signal.
To test for the ability of compounds to inhibit the activity of PI3Kα (wild-type), exemplary compounds of formula (I) were dissolved in DMSO and directly distributed into 384-well plates at a volume of 0.5 μL. 14.5 μL of P110/P85α/PIP2 mixture in buffer (obtained from the Millipore kit) containing MgCl2 (40 mM) and DTT (5 mM) was added to compound wells and incubated for 60 min at room temperature. P110/P85α was expressed in SF9 insect cells and purified nickel column extraction. Five ng of wild-type P110/P85α was used in the assay. The kinase reaction was started by the addition of ATP. The assay concentrations of both PIP2 and ATP were 10 μM. The reaction mixture was incubated for 30 min at room temperature and was terminated by the addition of stop mix and detection mix. Fluorescence was measured at 615 and 665 nm upon excitation at 340 nm in a Victor™ V5 fluorometer (Perkin Elmer, USA). The fluorescence emission ratio at 665 to 615 nm, proportional to the kinase activity, was plotted against the compound concentration to generate dose-response curves and IC50 values were determined using GraphPad Prism® 5 software.

T2 sequence (P42336 whole entry): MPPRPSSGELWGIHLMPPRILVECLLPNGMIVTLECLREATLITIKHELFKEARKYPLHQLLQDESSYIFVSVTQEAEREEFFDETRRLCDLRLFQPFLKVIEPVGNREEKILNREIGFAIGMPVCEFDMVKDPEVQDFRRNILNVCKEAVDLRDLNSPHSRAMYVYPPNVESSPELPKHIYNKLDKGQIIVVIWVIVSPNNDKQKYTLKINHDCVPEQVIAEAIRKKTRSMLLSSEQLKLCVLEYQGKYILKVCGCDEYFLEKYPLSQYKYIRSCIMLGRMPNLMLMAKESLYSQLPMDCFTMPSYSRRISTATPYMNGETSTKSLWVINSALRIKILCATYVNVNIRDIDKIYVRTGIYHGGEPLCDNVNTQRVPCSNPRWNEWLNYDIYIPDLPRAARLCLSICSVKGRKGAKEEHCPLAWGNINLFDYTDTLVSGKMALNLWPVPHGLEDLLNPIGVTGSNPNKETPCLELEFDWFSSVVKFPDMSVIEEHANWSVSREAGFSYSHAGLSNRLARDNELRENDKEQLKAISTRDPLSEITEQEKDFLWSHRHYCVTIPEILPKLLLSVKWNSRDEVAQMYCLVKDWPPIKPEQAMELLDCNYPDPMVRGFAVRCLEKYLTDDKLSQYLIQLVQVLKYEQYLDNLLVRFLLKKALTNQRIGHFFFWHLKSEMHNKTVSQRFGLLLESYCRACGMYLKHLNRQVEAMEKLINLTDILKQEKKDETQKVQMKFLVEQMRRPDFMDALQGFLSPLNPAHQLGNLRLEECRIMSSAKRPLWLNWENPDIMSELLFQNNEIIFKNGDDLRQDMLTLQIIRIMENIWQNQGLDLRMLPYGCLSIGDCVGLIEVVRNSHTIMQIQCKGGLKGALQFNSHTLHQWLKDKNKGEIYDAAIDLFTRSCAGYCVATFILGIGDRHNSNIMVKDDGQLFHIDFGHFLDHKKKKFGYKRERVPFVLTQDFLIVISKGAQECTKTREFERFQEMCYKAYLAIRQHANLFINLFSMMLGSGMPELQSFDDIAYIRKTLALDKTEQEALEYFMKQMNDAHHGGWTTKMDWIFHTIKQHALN
T2 sequence (P27986 whole entry partner): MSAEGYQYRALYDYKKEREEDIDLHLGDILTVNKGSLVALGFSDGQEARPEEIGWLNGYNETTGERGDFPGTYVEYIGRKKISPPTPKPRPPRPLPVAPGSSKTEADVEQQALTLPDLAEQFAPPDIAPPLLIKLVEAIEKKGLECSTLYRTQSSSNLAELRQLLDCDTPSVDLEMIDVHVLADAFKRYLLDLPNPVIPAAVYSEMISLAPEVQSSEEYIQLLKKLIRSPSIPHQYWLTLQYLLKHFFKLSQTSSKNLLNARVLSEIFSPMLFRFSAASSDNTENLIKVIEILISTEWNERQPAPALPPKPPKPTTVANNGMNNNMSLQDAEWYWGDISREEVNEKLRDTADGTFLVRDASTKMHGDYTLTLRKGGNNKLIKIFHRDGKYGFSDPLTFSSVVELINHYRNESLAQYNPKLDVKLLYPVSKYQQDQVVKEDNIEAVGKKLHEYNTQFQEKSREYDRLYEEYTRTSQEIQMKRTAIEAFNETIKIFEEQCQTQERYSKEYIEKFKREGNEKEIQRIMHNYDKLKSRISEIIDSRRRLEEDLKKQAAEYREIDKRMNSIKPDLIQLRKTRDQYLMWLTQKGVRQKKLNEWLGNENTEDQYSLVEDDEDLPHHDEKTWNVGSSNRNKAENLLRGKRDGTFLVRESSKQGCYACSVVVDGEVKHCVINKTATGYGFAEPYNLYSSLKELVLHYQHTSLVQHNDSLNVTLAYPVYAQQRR

As to `COc1ccncc1-c1ccc2c(N3CCOCC3)nc(-c3ccc(NC(=O)Nc4ccc(C(=O)N(C)C)cc4)cc3)nc2c1` [Example 169, 4-(3-(4-(7-(4-methoxypyridin-3-yl)-4-morpholino-quinazolin-2-yl)phenyl)ureido)-N,N-dimethyl-benzamide], the IC50 in experiment [1] and in experiment [2] was less than 50 nM each time.
As for `Cc1noc(C)c1-c1ccc2c(N3CCOCC3)nc(-c3ccc(NC(=O)Nc4ccc(C(=O)N5CCC(N(C)C)C5)cc4)c(F)c3)nc2c1` (stereo in doubt) [Example 221, (S)-1-(4-(3-(dimethylamino)pyrrolidine-1-carbonyl)phenyl)-3-(4-(7-(3,5-dimethylisoxazol-4-yl)-4-morpholino-quinazolin-2-yl)-2-fluorophenyl)urea], the IC50 in experiment [1] and in experiment [2] was 50 to 200 nM throughout.
On to `CN(C)C(=O)c1ccc(NC(=O)Nc2ccc(-c3nc(N4CCOCC4)c4ccc(-c5ccco5)cc4n3)cc2F)cc1` [Example 114, 4-(3-(2-fluoro-4-(7-(furan-2-yl)-4-morpholino-quinazolin-2-yl)phenyl)ureido)-N,N-dimethyl-benzamide], for which the IC50 in experiment [1] and in experiment [2] was 50 to 200 nM in each case.
Consider `CN(C)C(=O)c1ccc(NC(=O)Nc2ccc(-c3nc(N4CCOCC4)c4cc(F)c(-c5cncnc5)cc4n3)cc2)c(F)c1` [Example 174, 3-fluoro-4-(3-(4-(6-fluoro-4-morpholino-7-(pyrimidin-5-yl)quinazolin-2-yl)phenyl)ureido)-N,N-dimethyl-benzamide], for which the IC50 in experiment [1] was less than 50 nM; in experiment [2], 50 to 200 nM.
Turning to `Cc1ncccc1-c1ccc2c(N3CCOCC3)nc(-c3ccc(NC(=O)Nc4ccc(C(=O)N(C)C)cc4)cc3F)nc2c1` [Example 272, 4-(3-(3-fluoro-4-(7-(2-methylpyridin-3-yl)-4-morpholino-quinazolin-2-yl)phenyl)ureido)-N,N-dimethyl-benzamide], the IC50 in experiment [1] is 50 to 200 nM; in experiment [2], less than 50 nM.
In the case of `CN(C)C(=O)c1ccc(NC(=O)Nc2ccc(-c3nc(N4CCOCC4)c4ccc(-c5cnc(N(C)C)nc5)cc4n3)cc2F)cc1` [Example 231, 4-(3-(4-(7-(2-(dimethylamino)pyrimidin-5-yl)-4-morpholino-quinazolin-2-yl)-2-fluorophenyl)ureido)-N,N-dimethyl-benzamide], the IC50 in experiment [1] is less than 50 nM; in experiment [2], 50 to 200 nM.
For `CN(C)C(=O)c1ccc(NC(=O)Nc2ccc(-c3nc(N4CCOCC4)c4ncc(-c5ccc(CO)o5)cc4n3)cc2F)cc1` [Example 218, 4-(3-(2-fluoro-4-(7-(5-(hydroxymethyl)furan-2-yl)-4-morpholino-pyrido[3,2-d]pyrimidin-2-yl)phenyl)ureido)-N,N-dimethyl-benzamide] the same measures were 50 to 200 nM and less than 50 nM.
For `CC(O)c1ccc(-c2ccc3c(N4CCOCC4)nc(-c4ccc(NC(=O)Nc5ccc(C(=O)N(C)C)cc5F)cc4)nc3c2)o1` (stereo not shown) [Example 227, 3-fluoro-4-(3-(4-(7-(5-(1-hydroxyethyl)furan-2-yl)-4-morpholino-quinazolin-2-yl)phenyl)ureido)-N,N-dimethyl-benzamide], in that order: 50 to 200 nM and 201 to 10000 nM.
For `CN(C)C(=O)c1ccc(NC(=O)Nc2ccc(-c3nc(N4CCOCC4)c4ncc(-c5cncnc5)cc4n3)cc2)c(F)c1` [Example 154, 3-fluoro-N,N-dimethyl-4-(3-(4-(4-morpholino-7-(pyrimidin-5-yl)pyrido[3,2-d]pyrimidin-2-yl)phenyl)ureido)-benzamide] the same measures were less than 50 nM and less than 50 nM.
Turning to `Cc1ccc(-c2ccc3c(N4CCOCC4)nc(-c4ccc(NC(=O)Nc5ccc(C(=O)N(C)C)cc5)c(F)c4)nc3c2)o1` [Example 8, 4-(3-{2-Fluoro-4-[7-(5-methyl-furan-2-yl)-4-morpholin-4-yl-quinazolin-2-yl]-phenyl}ureido)dimethyl-benzamide], the IC50 in experiment [1] was 50 to 200 nM; in experiment [2], 201 to 10000 nM.
As for `Cc1ccc(-c2ccc3c(N4CCOCC4)nc(-c4ccc(NC(=O)Nc5ccc(N6CCCC6=O)cc5)cc4)nc3c2)o1` [Example 18, 1-(4-(7-(5-methylfuran-2-yl)-4-morpholino-quinazolin-2-yl)phenyl)-3-(4-(2-oxopyrrolidin-1-yl)phenyl)urea], the IC50 in experiment [1] was less than 50 nM; in experiment [2] it was 201 to 10000 nM.
For `CC1CN(c2nc(-c3ccc(NC(=O)Nc4ccc(C(=O)N(C)C)cc4)c(F)c3)nc3cc(-c4cncnc4)ccc23)CCO1` (stereo not shown) [Example 144, 4-(3-(2-fluoro-4-(4-(2-methylmorpholino)-7-(pyrimidin-5-yl)quinazolin-2-yl)phenyl)ureido)-N,N-dimethyl-benzamide], in that order: less than 50 nM and 50 to 200 nM.
For `CN(C)C(=O)c1ccc(NC(=O)Nc2ccc(-c3nc(N4CCOCC4)c4ccc(-c5cnc(O)nc5)cc4n3)cc2)cc1` [Example 150, 4-(3-(4-(7-(2-hydroxypyrimidin-5-yl)-4-morpholino-quinazolin-2-yl)phenyl)ureido)-N,N-dimethyl-benzamide], in that order: less than 50 nM and less than 50 nM.
Take `CC(=O)Nc1ccc(NC(=O)Nc2ccc(-c3nc(N4CCOCC4)c4ncc(-c5cnn(C)c5)cc4n3)cc2)cc1` [Example 294, N-(4-(3-(4-(7-(1-methyl-1H-pyrazol-4-yl)-4-morpholinopyrido[3,2-d]pyrimidin-2-yl)phenyl)ureido)phenyl) acetamide]: the IC50 in experiment [1] and in experiment [2] was less than 50 nM in each case.
As to `CN(C)C(=O)c1ccc(NC(=O)Nc2ccc(-c3nc(N4CCOCC4)c4ccc(C(=O)N5CCC(N(C)C)CC5)cc4n3)cc2)cc1` [Example 287, 4-(3-(4-(7-(4-(dimethylamino)piperidine-1-carbonyl)-4-morpholino-quinazolin-2-yl)phenyl)ureido)-N,N-dimethyl-benzamide], the IC50 in experiment [1] and in experiment [2] was 201 to 10000 nM throughout.
Take `CN(C)C(=O)c1ccc(NC(=O)Nc2ccc(-c3nc(N4CCOCC4)c4cc(F)c(-c5cccnc5)cc4n3)cn2)cc1` [Example 175, 4-(3-(5-(6-fluoro-4-morpholino-7-(pyridin-3-yl)quinazolin-2-yl)pyridin-2-yl)ureido)-N,N-dimethyl-benzamide]: the IC50 is 50 to 200 nM in experiment [1] and less than 50 nM in experiment [2].
As for `COc1ncc(-c2cnc3c(N4CCOCC4)nc(-c4ccc(NC(=O)Nc5ccc(C(=O)N(C)C)cc5)cc4F)nc3c2)cn1` [Example 263, 4-(3-(3-fluoro-4-(7-(2-methoxypyrimidin-5-yl)-4-morpholino-pyrido[3,2-d]pyrimidin-2-yl)phenyl)ureido)-N,N-dimethyl-benzamide], the IC50 in experiment [1] and in experiment [2] was less than 50 nM in each case.
In the case of `Cc1ccc(-c2ccc3c(N4CCOCC4)nc(-c4ccc(NC(=O)Nc5ccc(C(=O)N(C)C)cc5)nc4)nc3c2)o1` [Example 57, N,N-dimethyl-4-(3-{5-[7-(5-methyl-furan-2-yl)-4-morpholin-4-yl-quinazolin-2-yl]-pyridin-2-yl}-ureido)-benzamide], the values for the IC50 in experiment [1] and in experiment [2] were 201 to 10000 nM and less than 50 nM, respectively.
In the case of `O=C(Nc1ccc(C(=O)N2CCC(O)C2)cc1)Nc1ccc(-c2nc(N3CCOCC3)c3ccc(-c4ccco4)cc3n2)cc1` (stereo not shown) [Example 232, 1-(4-(7-(furan-2-yl)-4-morpholino-quinazolin-2-yl)phenyl)-3-(4-(3-hydroxypyrrolidine-1-carbonyl)phenyl)urea], the IC50 in experiment [1] and in experiment [2] was less than 50 nM each time.
Take `CN(C)C(=O)c1ccc(NC(=O)Nc2ccc(-c3nc(N4CCOCC4)c4ccc(-c5ccc(C#N)o5)cc4n3)c(F)c2)cc1` [Example 12, 4-(3-(4-(7-(5-cyanofuran-2-yl)-4-morpholino-quinazolin-2-yl)-3-fluorophenyl)ureido)-N,N-dimethyl-benzamide]: the IC50 in experiment [1] and in experiment [2] was less than 50 nM in each case.
